Measurements reported in patent US20060287319A1, “Anti-viral compositions comprising heterocyclic substituted phenyl furans and related compounds” (priority 2005, published 2006).
Read-outs that look alike come from different tables or passages of the source.

What was measured:
HIV-1 IIIB [1] = conditions: for EC50: read-out: EC50 (μM) (M ± SD) for inhibition of p24, HIV-1 IIIB, MT-2 cells
Procedure: Assessment of anti-HIV-1 infectivity. The inhibitory activity of compounds on infection by laboratory-adapted HIV-1 strains was determined as previously described (34). […] For the time-of-addition assay, compounds were added at various time post-infection. Then the culture supernatants were removed and fresh media were added. On the fourth day post-infection, 100 μl of culture supernatants were collected from each well, mixed with equal volumes of 5% Triton X-100 and assayed for p24 antigen, which was quantitated by ELISA (23). Briefly, the wells of polystyrene plates (Immulon 1B, Dynex Technology, Chantilly, Va.) were coated with HIV immunoglobulin (HIVIG), which was prepared from plasma of HIV-seropositive donors with high neutralizing titers against HIV-1IIIB as previously described (36) in 0.085 M carbonate-bicarbonate buffer (pH 9.6) at 4° C. overnight, followed by washes with PBS-T buffer (0.01M PBS containing 0.05% Tween-20) and blocking with PBS containing 1% dry fat-free milk (Bio-Rad Inc., Hercules, Calif.). Virus lysates were added to the wells and incubated at 37° C. for 1 h. […] Reactions were terminated by addition of 1N H2SO4. […] Recombinant protein p24 (US Biological, Swampscott, Mass.) was included for establishing standard dose response curve.

[2] = test system: HIV-1IIIB infected H9 cells (H9/HIV-1IIIB) and MT-2 cells; experiment: HIV-1 mediated cell-cell fusion (dye transfer assay); type: cell-based; conditions: H9/HIV-1IIIB with MT-2 cells; read-out: EC50 (μM) (M ± SD) for inhibition of Cell fusion
Procedure: Inhibition of cell-cell fusion. A dye transfer assay was used for detection of HIV-1 mediated cell fusion as previously described (11,25,26). H9/HIV-1IIIB cells were labeled with a fluorescent reagent, Calcein-AM (Molecular Probes, Inc., Eugene, Oreg.) and then incubated with MT-2 cells (ratio=1:5) in 96-well plates at 37° C. for 2 hrs in the presence or absence of compounds tested. The fused and unfused Cacein-labeled HIV-1-infected cells were counted under an inverted fluorescence microscope (Zeiss, Germany) with an eyepiece micrometer disc. The percentage of inhibition of cell fusion and the IC50 values were calculated as previously described (11).

MT-2 cells = test system: MT-2 cells
Procedure: Detection of in vitro cytotoxicity. The in vitro cytotoxicity of compounds for MT-2 cells was measured by a colorimetric method using XTT tetrazolium dye as previously described (21). Briefly, 100 μl of a compound at a graded concentration was added to equal volume of cells (5×10^5/ml) in a well of 96-well plates. After incubation at 37° C. for 4 days, XTT (1 mg/ml; […]; PolySciences, Inc., Warrington, Pa.) was added. Four hours later, the soluble intracellular formazan was quantitated colorimetrically at 450 nm with a reference at 570 nm.

HIV-1 IIIB [3] = experiment: HIV-1-mediated cytopathic effect (CPE); type: cell-based; conditions: read-out: EC50 (μM) (M ± SD) for inhibition of CPE
Source text: We thus purchased these compounds and tested their inhibitory activity on: 1) HIV-1 replication (p24 production); 2) HIV-1-mediated cytopathic effect (CPE); and 3) HIV-1 Env-induced cell-cell fusion; and their cytotoxicity to MT-2 cells.

[4] = read-out: Cytotoxicity CC50 (μM) (M ± SD), MT-2 cells

SMILES | EC50 (HIV-1 IIIB [1]) [µM] | EC50 [2] [µM] | EC50 (HIV-1 IIIB [3]) [µM] | CC50 (MT-2 cells) [µM] | SI (CC50/EC50) (HIV-1 IIIB [1]) | SI (CC50/EC50) (HIV-1 IIIB [1]; selectivity index) | CC50 (MT-2 cells; [4]) [µM]
O=C(O)c1cc(-c2ccc(/C=C3\SC(=O)N(Cc4ccccc4)C3=O)o2)ccc1Cl [NB192] | > 100 | > 100 | > 100 | – | – | – | –
COc1ccc(N2C(=O)/C(=C/c3ccc(-c4cccc(C(=O)O)c4)o3)SC2=S)cc1 [NB156] | 0.779 ± 0.092 | 2.66 | 3.16 ± 1.35 | – | – | >470.59 | > 399
O=C(O)c1cccc(-c2ccc(/C=C3\SC(=S)N(Cc4ccccc4)C3=O)o2)c1 [NB182] | 0.83 ± 0.024 | 1.68 ± 0.142 | 2.25 ± 1.14 | – | – | – | –
O=C(O)c1cccc(-c2ccc(/C=C3\SC(=O)N(c4ccc(Cl)cc4)C3=O)o2)c1 [NB160] | > 100 | > 100 | > 100 | – | – | – | > 376
O=C1/C(=C/c2ccc(-c3cccc(Cl)c3)o2)SC(=S)N1c1ccccc1 [NB239] | > 100 | > 100 | > 100 | – | – | – | > 402
O=C(O)c1cc(-c2ccc(/C=C3\SC(=O)N(c4ccc(Cl)cc4)C3=O)o2)ccc1Cl [NB140] | 12.1 ± 2.73 | > 100 | 63.4 ± 1.28 | – | – | 10.41 | 126 ± 19.2
Cc1ccc(N2C(=O)/C(=C/c3ccc(-c4cccc(C(=O)O)c4)o3)SC2=S)c(C)c1 [NB146] | 0.299 ± 0.046 | 1.08 | 1.77 ± 0.368 | – | – | 103.15 | 33.8 ± 4.44
O=C(O)c1cccc(-c2ccc(/C=C3\SC(=S)N(C4CCCCC4)C3=O)o2)c1 [NB181] | 0.218 ± 0.024 | > 100 | 0.605 ± 0.194 | – | – | >1777.78 | > 387
O=C(O)c1cccc(-c2ccc(/C=C3\SC(=S)N(c4cccc(F)c4)C3=O)o2)c1 [NB147] | 10.4 ± 0.84 | > 100 | > 100 | – | – | 8.85 | 92.3 ± 5.62
O=C(O)c1cc(-c2ccc(/C=C3\SC(=O)N(CC(=O)N4CCOCC4)C3=O)o2)ccc1Cl [NB202] | > 100 | > 100 | > 100 | – | – | – | > 336
Cc1c(C(=O)O)cccc1-c1ccc(/C=C2\SC(=O)N(CC(=O)Nc3ccccc3F)C2=O)o1 [NB195] | > 100 | > 100 | > 100 | – | – | – | 154 ± 6.93
O=C(O)c1cc(-c2ccc(/C=C3\SC(=O)N(c4cccc(Cl)c4)C3=O)o2)ccc1Cl [NB139] | > 100 | > 100 | > 100 | – | – | – | 239 ± 14.7
O=C(O)c1cc(-c2ccc(/C=C3\SC(=O)N(Cc4ccc(F)cc4)C3=O)o2)ccc1Cl [NB191] | > 100 | > 100 | > 100 | – | – | – | > 349
O=C(O)c1cc(-c2ccc(/C=C3\SC(=S)N(c4ccc(Cl)cc4)C3=O)o2)ccc1Cl [NB213] | 0.514 ± 0.128 | 14.7 ± 0.599 | 3.7 ± 1.01 | – | – | 181.04 | 93 ± 12.8
Cc1ccc(C(=O)O)cc1-c1ccc(/C=C2\SC(=O)N(c3ccccc3)C2=O)o1 [NB187] | > 100 | > 100 | > 100 | – | – | – | 363 ± 40.1
Cc1ccc(N2C(=O)/C(=C/c3ccc(-c4cccc(C(=O)O)c4)o3)SC2=S)cc1 [NB230] | 0.332 ± 0.095 | 3.08 ± 0.047 | 2.16 ± 0.284 | – | – | 428.93 | 142
O=C(O)c1cccc(-c2ccc(/C=C3\SC(=O)N(c4ccccc4)C3=O)o2)c1 [NB158] | > 100 | > 100 | > 100 | – | – | – | > 102
O=C(O)c1cccc(-c2ccc(/C=C3\SC(=S)N(Cc4ccco4)C3=O)o2)c1 [NB238] | – | – | – | – | >14.57 | – | –
O=C(O)c1cc(-c2ccc(/C=C3\SC(=S)N(Cc4ccccc4)C3=O)o2)ccc1Cl [NB217] | 0.767 ± 0.219 | 2.3 ± 0.131 | 2.37 ± 0.657 | – | – | – | –

Continued, in another order:

EC50 (HIV-1 IIIB [1]) [µM] | EC50 [2] [µM] | EC50 (HIV-1 IIIB [3]) [µM] | SMILES | CC50 (MT-2 cells) [µM] | SI (CC50/EC50) (HIV-1 IIIB [1]) | SI (CC50/EC50) (HIV-1 IIIB [1]; selectivity index) | CC50 (MT-2 cells; [4]) [µM]
> 100 | > 100 | > 100 | Cc1cccc(NC(=O)CN2C(=O)S/C(=C\c3ccc(-c4cccc(C(=O)O)c4C)o3)C2=O)c1 [NB209] | 113 ± 14.8 | – | – | –
0.323 ± 0.081 | 16.8 ± 0.457 | 0.753 ± 0.081 | C=CCN1C(=O)/C(=C/c2ccc(-c3cccc(C(=O)O)c3)o2)SC1=S [NB183] | 174 ± 16.2 | 537.83 | – | –
> 100 | > 100 | > 100 | Cc1ccc(C(=O)O)cc1-c1ccc(/C=C2\SC(=S)NC2=O)o1 [NB188] | 197 ± 13 | – | – | –
> 100 | > 100 | > 100 | C#CCN1C(=O)S/C(=C\c2ccc(-c3ccc(Cl)c(C(=O)O)c3)o2)C1=O [NB200] | > 413 | – | – | –
> 100 | > 100 | > 100 | O=C(O)CN1C(=O)/C(=C/c2ccc(-c3cc(C(=O)O)ccc3Cl)o2)SC1=S [NB235] | > 378 | – | – | –
> 100 | > 100 | > 100 | O=C(O)c1cccc(-c2ccc(/C=C3\SC(=S)N(c4ccc(F)cc4)C3=O)o2)c1 [NB229] | > 376 | – | – | –
> 100 | > 100 | > 100 | Cc1cccc(NC(=O)CN2C(=O)S/C(=C\c3ccc(-c4ccc(Cl)c(C(=O)O)c4)o3)C2=O)c1 [NB207] | > 464 | – | – | –
> 100 | > 100 | > 100 | CC(C)CN1C(=O)S/C(=C\c2ccc(-c3ccc(Cl)c(C(=O)O)c3)o2)C1=O [NB193] | > 394 | – | – | –
> 100 | > 100 | > 100 | Cc1ccc(NC(=O)CN2C(=O)S/C(=C\c3ccc(-c4cc(C(=O)O)ccc4Cl)o3)C2=O)cc1 [NB197] | > 341 | – | – | –
> 100 | > 100 | > 100 | Cc1cccc(NC(=O)CN2C(=O)S/C(=C\c3ccc(-c4cc(C(=O)O)ccc4Cl)o3)C2=O)c1 [NB198] | > 322 | – | – | –
> 100 | > 100 | > 100 | O=C1NC(=S)S/C1=C\c1ccc(-c2cc(C(=O)O)ccc2Cl)o1 [NB190] | > 437 | – | – | –
> 100 | > 100 | > 100 | Cc1ccc(NC(=O)CN2C(=O)S/C(=C\c3ccc(-c4ccc(Cl)c(C(=O)O)c4)o3)C2=O)cc1 [NB199] | > 322 | – | – | –
> 100 | > 100 | > 100 | O=C1NC(=S)S/C1=C\c1ccc(-c2cccc(C(=O)O)c2)o1 [NB184] | > 483 | >28.93 | – | –
2.65 | 34.9 | – | COc1ccccc1N1C(=O)/C(=C/c2ccc(-c3cccc(C(=O)O)c3)o2)SC1=S [NB148] | > 368 | >266.67 | – | –
> 100 | > 100 | > 100 | CCOC(=O)CN1C(=O)S/C(=C\c2ccc(-c3ccc(Cl)c(C(=O)O)c3)o2)C1=O [NB204] | > 366 | – | – | –
2.12 ± 0.38 | > 100 | 3.46 ± 0.2 | COC(=O)c1ccccc1N1C(=O)/C(=C/c2ccc(-c3ccc(Cl)c(C(=O)O)c3)o2)SC1=S [NB226] | > 320 | – | – | –
> 100 | > 100 | > 100 | O=C(O)CN1C(=O)/C(=C/c2ccc(-c3cccc(C(=O)O)c3)o2)SC1=S [NB180] | > 411 | – | – | –
> 100 | > 100 | > 100 | C#CCN1C(=O)S/C(=C\c2ccc(-c3cc(C(=O)O)ccc3C)o2)C1=O [NB205] | > 435 | – | – | –
> 100 | > 100 | > 100 | CCN1C(=O)S/C(=C\c2ccc(-c3cc(C(=O)O)ccc3Cl)o2)C1=O [NB236] | 113 ± 8.64 | – | – | –
76.9 ± 3.52 | > 100 | 50.3 ± 4.09 | O=C1NC(=S)S/C1=C\c1ccc(-c2ccc(Cl)c(C(=O)O)c2)o1 [NB185] | > 437 | >5.68 | – | –
> 100 | – | > 100 | C=CCN1C(=O)/C(=C/c2ccc(-c3cc(C(=O)O)cc(C(=O)O)c3)o2)SC1=S [NB225] | > 386 | – | – | –
